{"source": "patent US20250082654A1", "about": "“AZD3355 (LESOGABERAN) FOR TREATMENT AND PREVENTION OF NONALCOHOLIC STEATOHEPATITIS (NASH), LIVER FIBROSIS, AND OTHER LIVER CONDITIONS” (Icahn School of Medicine at Mount Sinai, priority 2018, published 2025)", "key": {"LX-2 cells [1]": {"test_system": "LX-2 cells", "assay": "Cell cytotoxicity assay (MTS)", "assay_type": "cell-based, human", "settings": "0-300 nM, 24, 48 or 72 hours", "method": "(§1) At the beginning of each experiment, stellate cells (LX-2 cells or phHSCs) were serum-starved overnight in DMEM supplied with 0.1% BSA (without antibiotic) to synchronize metabolic activities of the cells. The cells were then exposed to different working concentration of either AZD3355 or sorafenib for 24, 48 and 72 hours.\n(§2) 5,000 LX-2 cells or 10,000 phHSCs were plated per well in 96 well plates. Cells were serum starved overnight in DMEM supplemented with 0.1% BSA (without antibiotic). Cells were then incubated with different concentrations of AZD3355 for indicated durations and MTS assays were accomplished using CellTiter 96 AQueous One Solution Cell Proliferation Assay kit (Promega, WI) according to manufacturer's protocol."}, "phHSCs [2]": {"test_system": "phHSCs", "assay": "Cell cytotoxicity assay (MTS)", "assay_type": "cell-based, human", "settings": "30 nM or 100 nM, 48 or 72 hours", "method": "as §1, §2"}, "LX-2 cells [3]": {"test_system": "LX-2 cells", "assay": "Cell apoptosis assay (caspase-3/7 activity)", "assay_type": "cell-based, human", "settings": "any dosage, 72 hours", "method": "as §1\n(§3) 5,000 LX-2 cells or 10,000 phHSCs were plated per well in 96-well clear bottom black plates. After overnight serum starvation in DMEM supplemented with 0.1% BSA (without antibiotic) the cells were exposed to AZD3355 at indicated concentration. For positive apoptotic control the cells were treated with 3% DMSO. After 72 hours of drug exposure the fluorescence signal of Caspase-3 and -7 activities were measured in Synergy HT (BioTek Instrument Inc., VT) spectrofluorometer by using Apo-ONE Homogeneous Caspase-3/7 Assay kit (Promega, WI) according to manufacturer's protocol."}, "phHSCs [4]": {"test_system": "phHSCs", "assay": "Cell apoptosis assay (caspase-3/7 activity)", "assay_type": "cell-based, human", "settings": "any dosage, 72 hours", "method": "as §1, §3"}, "human liver slices": {"test_system": "human liver slices", "assay": "Liver slice assay, histopathology and H&E staining", "assay_type": "cell-based", "settings": "24 hours", "method": "Ten human liver pieces were collected from the Mount Sinai biorepository. The samples were prepared by coring the liver with 8 mm cylindrical coring tools. The liver cores were kept in ice cold WE medium, with GlutaMAX supplemental. A liver core was then mounted on a specimen plate with cyanoacrylate adhesive. Liver slices (approximately 200 μm in thickness) were placed in ice cold Krebs-Henesleit buffer in the presence of carbogen gas. There was then a 1 hour pre-incubation in WE GlutaMAX media with gentamicin in 95% O2 and 5% CO2 at 37° C. in a humidified rocker chamber to restore ATP levels.\nThe liver slices were then cultured in WE GlutaMAX media with gentamicin in 95% O2 and 5% CO2 at 37° C. in a humidified rocker chamber with slow 70 rpm rocking in the presence of AZD3355 in the amounts of 250 nM, 500 nM, 1000 nM, or 2000 nM, or sorafenib at 1000 nM., or control vehicle (saline water).\nAfter 24 hours, the tissue slices were harvested for either RNA isolation and quantitative PCR for measurements of Col1α1, TNFα, and IL-6 expression, or for histopathology and hematoxylin and eosin (H&E) staining as described in Example 3."}, "[5]": {"assay": "NASH mouse model, body weight", "assay_type": "in vivo", "settings": "male and female NASH model mice, 12-week treatment", "method": "The experimental protocol was reviewed and approved by the Institutional Animal Care and Use Committee (IACUC) at Icahn School of Medicine at Mount Sinai, NY. Male and Female C57BL/6J mice (age: 6 weeks; weight: 20-25 g) were purchased from Jackson Laboratories (Farmington, CT). Animals were housed in a 12 hours light—12 hours dark cycle in the animal facility at Icahn School of Medicine at Mount Sinai, NY and handled following guidelines for the care and use of laboratory animals. Male and female mice were maintained in separate cages.\nCarbon tetrachloride (CC14) was purchased from Sigma-Aldrich, MO. CC14 was freshly dissolved in corn oil at final concentration of 5% before injection. […]\nWestern diet containing 21.2% fat (42% Kcal), 41% sucrose and 1.25% cholesterol by weight was purchased from Envigo, WI (Teklad Custom diet Cat #TD.120528). […] During change of food and water we have been measured the amount of food and water intake and the data was collected.\nFour separate groups of mice were given either 0.5% methylcellulose (as Vehicle) or AZD3355 at 10 mg/kg (low dose) body weight of mice or 30 mg/kg (high dose) body weight of mice by twice daily (BID (5 days/week)) and OCA at 30 mg/kg body weight of mice by daily (QD (5 days/week)) through oral route for up to next 12 weeks (week 13 to week 24). […] All animals were closely monitored the health conditions and behavior."}}}
{"compound": "NC[C@@H](F)C[PH](=O)O", "note": "[AZD3355, [(2R)-3-amino-2-fluoropropyl] phosphinic acid]", "values": [{"measurement": "cell cytotoxicity (MTS)", "setting": "LX-2 cells [1]", "value": "no significant cell cytotoxicity observed except for in LX-2 cells at 300 nM"}, {"measurement": "cell cytotoxicity (MTS)", "setting": "phHSCs [2]", "value": "no significant cell cytotoxicity"}, {"measurement": "apoptotic effect (caspase-3/7 activity)", "setting": "LX-2 cells [3]", "value": "no apoptotic effect"}, {"measurement": "apoptotic effect (caspase-3/7 activity)", "setting": "phHSCs [4]", "value": "no apoptotic effect"}, {"measurement": "liver cells viability (H&E)", "setting": "human liver slices", "value": "did not change"}, {"measurement": "body weight during treatment", "setting": "[5]", "value": "stable"}]}
